This passage reports IC50 results from patent US8455528B2, “Imidazole derivatives useful as inhibitors of FAAH” (Merck Sharp & Dohme Corp., priority 2008, dated 2013).

Assay [1] addresses T1, Human FAAH (Homo sapiens, UniProt O00519).
T1 construct: The full length FAAH was subcloned into the mammalian expression vector, pcDEF.neo; expressed in transfected cells
T1 sequence (O00519 1-579): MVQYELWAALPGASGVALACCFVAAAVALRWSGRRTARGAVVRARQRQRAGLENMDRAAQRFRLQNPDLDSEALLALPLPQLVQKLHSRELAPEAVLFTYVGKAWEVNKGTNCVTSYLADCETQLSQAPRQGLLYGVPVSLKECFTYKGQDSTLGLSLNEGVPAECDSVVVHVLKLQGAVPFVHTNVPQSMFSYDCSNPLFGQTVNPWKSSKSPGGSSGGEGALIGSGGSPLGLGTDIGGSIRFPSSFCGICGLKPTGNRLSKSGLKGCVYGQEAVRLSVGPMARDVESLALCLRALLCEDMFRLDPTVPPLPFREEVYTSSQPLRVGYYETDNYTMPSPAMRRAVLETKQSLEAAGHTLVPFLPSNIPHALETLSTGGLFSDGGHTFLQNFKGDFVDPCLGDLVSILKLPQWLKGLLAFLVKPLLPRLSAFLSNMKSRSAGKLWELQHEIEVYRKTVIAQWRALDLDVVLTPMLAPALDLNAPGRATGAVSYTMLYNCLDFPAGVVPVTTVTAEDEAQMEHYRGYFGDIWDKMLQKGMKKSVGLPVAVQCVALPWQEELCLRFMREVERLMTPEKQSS
Kind of assay: Human FAAH whole cell assay (FAAH_CHO cells). The conditions noted are these: FAAH inhibition, whole CHO cells expressing human FAAH. The assay is classed as cell-based. An excerpt:
To assist in assay development stable cell lines for human, murine and rat full length FAAH were developed. Human FAAH cDNA (Accession No: NM_001441.1) was purchased from Origene (Rockville, Md.). The full length FAAH was subcloned into the mammalian expression vector, pcDEF.neo, using XbaI and EcoRI restriction sites and used for stable cell line generation.
(§1) Murine (accession number NM_010173) and Rat FAAH (accession number NM_024132) was amplified by reverse transcriptase polymerase chain reaction (RT-PCR) from brain cDNA (BD Biosciences, San Jose, Calif.) using primers 1 and 2 or primers 1 and 3 respectively (see Table). The resulting PCR product was ligated into pCR4 TOPO and DNA sequence confirmed. The full length murine FAAH was subcloned into the mammalian expression vector, pcDEFneo using either EcoRI (murine) or KpnI and EcoRI (rat) restriction sites. Chinese hamster ovary cells (CHO) were transfected following manufacturers protocol (AMAXA). Forty eight hours post transfection, cells were trypsinized and transferred to 96 well plates in Iscove's DMEM media supplemented with 2 mM Glutamine, 10% fetal calf serum, 1 mg/ml geneticin and HT Supplement (0.1 mM sodium hypoxanthine, 0.016 mM thymidine) in order to isolate single clones. Following selection in geneticin, individual clones were selected and FAAH activity was assessed using a whole cell fluorescent anandamide assay, modified from Ramarao et al (2005). Following removal of tissue culture media cells were dislodged following addition of Cellstripper (Mediatech, Inc. Manassas, Va.) and transferred to 96 well black clear bottom assay plate, centrifuged at 1,000 rpm for 3 mins and media removed and replaced with assay buffer (50 mM Tris pH8.0, 1 mM EDTA, 0.1% fatty acid free BSA). The reaction was initiated by addition of fluorescent substrate, AMC Arachidonoyl Amide (Cayman Chemical, Ann Arbor, Mich.) to 1 μM and reaction allowed to proceed for 2 hours at room temperature. Release of fluorescence was monitored in a CytoFluor Multiplate Reader. Cells expressing the highest amount of FAAH activity were selected for study with FAAH inhibitors.
(§2) (American Radiolabeled Chemicals; 1 mCi/ml) with FAAH (Life Sciences (1995), 56, 1999-2005 and Journal of Pharmacology and Experimented Therapeutics (1997), 283, 729-734), Analytical. Biochemistry (2003), 318, 270-5. In addition, routine assays were performed monitoring hydrolysis of arachidonyl-7-amino-4-methylcoumarin amide (AAMCA) by following increase in fluorescence upon release of 7-amino 4-methyl coumarin (λEX=355 nm, (λEM=460 nm). Analytical. Biochemistry (2005). 343, 143-51
(§3) Assays are performed on either cell lysate or microsome fractions prepared as described or in whole cell format employing either the fluorescent substrate AAMCA (Cayman chemical, Ann Arbor, Mich.) or ^3H-anandmaide ([ETHANOLAMINE-1-3H] American Radiolabeled Chemicals; 1 mCi/ml). The cell lysate or microsome assay is performed in Costar black wall, clear bottom plates by adding FAAH_CHO (whole cell, cell lysate or microsome) in assay buffer (50 mM Phosphate, pH 8.0, 1 mM EDTA, 200 mM KCl, 0.2% glycerol, 0.1% fatty acid free BSA) to each well, followed by either DMSO or compound and allowed to incubate at 22-25° C. for fifteen minutes. AAMCA substrate was used to achieve a final concentration of 1 μM and reaction allowed to proceed at room temperature for 1-3 hours. Fluorescent release as a measure of FAAH activity was monitored by reading the plate in a CytoFluor Multiplate Reader ([…]). Whole cell assay is conducted with cells harvested after rinsing tissue culture flasks three times with Ca^++Mg^++ free PBS, incubating for 10 min in Enzyme free dissociation media and centrifuging for 5 minutes at 1,000 rpm in table top centrifuge. Cells are resuspended in assay buffer at desired cell number in (4×10^4 cells/assay in 96-well format; 1×10^4 cells/assay in 384-well format) and assayed as described.

The target of assay [2] is T2, Rat FAAH (Rattus norvegicus, UniProt P97612).
T2 construct: expressed in transfected cells
T2 sequence (P97612 1-579): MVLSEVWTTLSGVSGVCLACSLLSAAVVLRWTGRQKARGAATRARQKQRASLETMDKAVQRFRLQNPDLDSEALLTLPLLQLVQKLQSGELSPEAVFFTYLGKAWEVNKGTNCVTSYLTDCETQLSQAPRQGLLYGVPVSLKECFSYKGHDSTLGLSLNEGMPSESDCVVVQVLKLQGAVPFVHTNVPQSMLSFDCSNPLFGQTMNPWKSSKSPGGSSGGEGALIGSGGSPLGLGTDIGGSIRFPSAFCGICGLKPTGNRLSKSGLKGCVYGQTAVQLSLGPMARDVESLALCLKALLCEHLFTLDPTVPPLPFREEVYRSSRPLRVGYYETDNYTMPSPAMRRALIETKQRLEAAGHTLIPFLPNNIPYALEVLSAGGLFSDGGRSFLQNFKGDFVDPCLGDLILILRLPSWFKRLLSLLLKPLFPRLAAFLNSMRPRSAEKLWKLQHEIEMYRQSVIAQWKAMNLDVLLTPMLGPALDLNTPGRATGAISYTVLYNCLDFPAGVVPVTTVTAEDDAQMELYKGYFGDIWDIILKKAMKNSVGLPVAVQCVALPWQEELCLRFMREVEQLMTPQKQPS
Kind of assay: Rat FAAH whole cell assay (FAAH_CHO cells). It counts as cell-based. The following applies: FAAH inhibition, whole CHO cells expressing rat FAAH.
Source text: as §1, §2, §3

As to `Cn1cnc(-c2ccc(C#N)cc2)c1Sc1ccc(Cl)cc1` [Ex 33, 4-{5-[(4-chlorophenyl)thio]-1-methyl-1H-imidazol-4-yl}benzonitrile], the IC50 (commonly the midpoint of a concentration-inhibition curve) in assay [1] stood at 2980 nM; in assay [2], 1210 nM.

Regarding `Cn1c(C2CCC2)nc(-c2ccc(S(C)(=O)=O)cc2)c1Sc1ccc(Cl)cc1` [Ex 14], the values for the IC50 in assay [1] and in assay [2] were 107 nM and 146 nM, respectively.

Consider `CS(=O)(=O)c1ccc(-c2nc(C3CCC3)[nH]c2Sc2ccc(Cl)cc2)cc1` [Ex 13], for which the IC50 in assay [1] amounted to 3000 nM; in assay [2], 702 nM.

In the case of `Cn1c(-c2ccccn2)nc(-c2ccc(-c3nnco3)cc2)c1Sc1ccc(Cl)cn1` [Ex 36, 5-Chloro-2-({1-methyl-4-[4-(1,3,4-oxadiazol-2-yl)phenyl]-2-pyridin-2-yl-1H-imidazol-5-yl}thio)pyridine], the IC50 came out at 48.6 nM in assay [1] and 63.4 nM in assay [2].

On to `Cn1c(-c2ccccn2)nc(-c2ccc(N)cc2)c1Sc1ccc(Cl)cc1` [Ex 98, 4-{5-[(4-Chlorophenyl)thio]-1-methyl-2-pyridin-2-yl-1H-imidazol-4-yl}aniline], for which the IC50 in assay [1] stood at 1000 nM; in assay [2], 870 nM.

`Cn1c(-c2ccccc2)nc(-c2ccc(C#N)cc2)c1Sc1ccc(Cl)cc1` [Ex 2, 4-{5-[(4-Chlorophenyl)thio]-1-methyl-2-phenyl-1H-imidazol-4-yl}benzonitrile]: the IC50 was 84.8 nM in assay [1] and 30.1 nM in assay [2].

As to `CC(C)c1nc(-c2ccc(S(C)(=O)=O)cc2)c(Sc2ccc(Cl)cc2)n1C` [Ex 29, 5-[(4-Chlorophenyl)thio]-2-isopropyl-1-methyl-4-[4-(methylsulfonyl)phenyl]-1H-imidazole], the IC50 was 480 nM in assay [1] and 105 nM in assay [2].

As to `Cn1c(-c2ccccn2)nc(-c2ccc(-n3ccnn3)cc2)c1Sc1ccc(Cl)cc1` [Ex 66], the IC50 in assay [1] came to 52.2 nM; in assay [2], 31.9 nM.

As for `Cn1c(-c2ccccn2)nc(-c2ccc(C(O)C(F)F)cc2)c1Sc1ccc(Cl)cc1` (stereo not drawn) [Ex 57, 1-(4-{5-[(4-Chlorophenyl)thio]-1-methyl-2-pyridin-2-yl-1H-imidazol-4-yl}phenyl)-2,2-difluoroethanol], the IC50 in assay [1] was found to be 67.8 nM; in assay [2], 59.6 nM.
